“And” between values parts separate entries of the source, which are not always exact repeats. Equal values may be shown once.
Key:
Test in all cases: TMT LC-MSMS of 11-labelled proteins
Type in all cases: cell-based
[1] = target: Isoform 2 of Elongation factor 1-gamma (EEF1G) (Homo sapiens, UniProt P26641); conditions: SKBR3 cells; for Abundance Ratio: (11) / (DMSO): 11 0.5 µM 3 h vs DMSO; for Abundance Ratio: (11) / (11 with PU-H71): 11 0.5 µM 3 h vs with PU-H71 10 µM
From the text: (§1) The labelled proteins were enriched by immunoprecipitation with an anti-fluorescein antibody and tryptically digested in gel. Digested peptides were modified with Light- (L-), Medium- (M-), or Heavy- (H-) TMT reagent for samples treated with 11, 11 with PU-H71 (as competitive condition), or DMSO (vehicle), respectively, and mixed in a 1:1:1 ratio for LC-MSMS analysis. We performed three experimental replicates, in which proteins detected and quantified at least twice were selected as identified proteins. According to the related approach of Cravatt et al[44], the proteins having L/H (11/DMSO) ratios >5 were defined as 11-labelled proteins. […] On the basis of these criteria, we identified 6 proteins that react with 11, including three ligand-specific targets (Hsp90α (HSP90AA1), Hsp90β (HSP90AB1), and Grp94 (HSP90B1)) and three off-targets (Trifunctional enzyme subunit α (HADHA), Tubulin-α (TUBA1B), and ADP/ATP translocase 3 (SLC25A6)) (Fig. 5d, e and Supplementary Data 1). […] Grp94, a HSP90 isomer, was previously reported to be a PU-H71 specific target. TRAP-1, another Hsp90 isomer that can bind PU-H71, on the other hand, was not identified as 11-target by our criteria.
(§2) SKBR3 human breast cancer cells (2.0 × 10^6 cells) were seeded on a 10 cm dish and cultured for 3 days in McCoy’s 5A in a 5% CO2 humidified chamber at 37 °C. […] As competitive experiments, the labelling was conducted in the presence of PU-H71 (10 µM). After labelling, the cells were washed twice with PBS, and lysed with RIPA buffer. […] The supernatant was mixed with chilled acetone and incubated overnight at −80 °C. The protein precipitates were solubilized by sonication in 1 mL of RIPA buffer containing 1% SDS, and then 10-fold diluted with RIPA buffer to reduce SDS concentration to c.a. 0.1%. The protein solution (containing 1 mg of protein) was mixed with Protein G Sepharose 4 Fast Flow (GE Healthcare) and rotated at 4 °C for 1 h. After removal of the beads, the remaining supernatant was mixed with anti-fluorescein antibody (Abcam, ab19491, 7:10000) and rotated at 4 °C for 1 h, followed by addition of fresh Protein G Sepharose 4 Fast Flow and further incubation at 4 °C for 4 h. The beads were washed five times with RIPA buffer and once with PBS. Proteins were eluted from the beads by addition of 2 × sample buffer containing 100 mM DTT and boiling at 95 °C for 5 min. The samples were subjected to a 7.5% SDS–PAGE gel (Mini-PROTEAN TGX Gels, BioRad), and electrophoresed as the migration distance of dye front is about 10 mm. Each lane was excised (height, 10 mm), and treated with a 47.5% methanol / 47.5% pure water / 5% acetic acid for 20 min, a 50% methanol / 50% pure water for 10 min, and in pure water for 10 min. The gel pieces were dehydrated with 100% acetonitrile, and then swelled with 200 μL of 100 mM TEAB (triethylamine bicarbonate) buffer containing 10 mM DTT and heated at 56 °C for 30 min. The solutions were replaced with 200 µL of 100 mM TEAB buffer containing 55 mM iodoacetamide and incubated for 45 min in the dark. The gel pieces were washed with 100 mM TEAB buffer and dehydrated in acetonitrile. This step was repeated once. The gels were reswelled in 100 mM TEAB buffer containing 10 ng/μL Sequencing Grade Trypsin (Promega) and incubated overnight at 37 °C. To the gels, 50 μL of an extraction solution (50% acetonitrile, 0.1% TFA) was added. After 10 min incubation, the supernatants were collected to new tubes, and this process was repeated twice. Extracted peptides were dried in vacuo and reconstituted with 25 μL of 100 mM TEAB buffer.

[2] = target: Tubulin alpha-1B chain (TUBA1B) (Homo sapiens, UniProt P68363)
Tubulin alpha-1B chain (TUBA1B), sequence (P68363 whole entry): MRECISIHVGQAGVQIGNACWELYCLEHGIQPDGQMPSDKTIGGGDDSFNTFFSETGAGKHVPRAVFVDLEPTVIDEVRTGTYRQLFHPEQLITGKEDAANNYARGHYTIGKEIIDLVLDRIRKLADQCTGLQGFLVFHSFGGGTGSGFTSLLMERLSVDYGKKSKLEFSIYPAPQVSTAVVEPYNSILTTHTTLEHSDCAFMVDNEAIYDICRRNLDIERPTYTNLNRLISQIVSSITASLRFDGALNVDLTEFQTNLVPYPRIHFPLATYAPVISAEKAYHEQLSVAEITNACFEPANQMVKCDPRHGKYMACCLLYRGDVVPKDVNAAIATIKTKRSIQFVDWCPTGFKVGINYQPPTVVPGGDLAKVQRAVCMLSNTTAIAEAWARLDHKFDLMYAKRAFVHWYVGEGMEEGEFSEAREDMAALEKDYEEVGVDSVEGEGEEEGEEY
Tubulin alpha-1B chain (TUBA1B), sequence (P07437 whole entry partner): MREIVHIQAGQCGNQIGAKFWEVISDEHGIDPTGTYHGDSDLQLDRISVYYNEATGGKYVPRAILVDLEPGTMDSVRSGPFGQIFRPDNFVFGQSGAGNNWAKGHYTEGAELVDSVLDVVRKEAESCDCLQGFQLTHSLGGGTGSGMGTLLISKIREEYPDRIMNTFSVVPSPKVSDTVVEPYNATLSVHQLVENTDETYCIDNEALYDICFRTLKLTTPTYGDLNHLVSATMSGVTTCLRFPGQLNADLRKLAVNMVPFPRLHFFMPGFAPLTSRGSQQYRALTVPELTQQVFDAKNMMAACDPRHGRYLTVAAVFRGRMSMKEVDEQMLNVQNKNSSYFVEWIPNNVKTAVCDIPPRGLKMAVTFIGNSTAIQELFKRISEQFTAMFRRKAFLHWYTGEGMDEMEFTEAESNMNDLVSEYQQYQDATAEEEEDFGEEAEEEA
From the text: as §1, §2

[3] = target: T1, Isoform 2 of Fructose-bisphosphate aldolase A (ALDOA) (Homo sapiens, UniProt P04075)
T1 sequence (P04075 2-364 limits assumed): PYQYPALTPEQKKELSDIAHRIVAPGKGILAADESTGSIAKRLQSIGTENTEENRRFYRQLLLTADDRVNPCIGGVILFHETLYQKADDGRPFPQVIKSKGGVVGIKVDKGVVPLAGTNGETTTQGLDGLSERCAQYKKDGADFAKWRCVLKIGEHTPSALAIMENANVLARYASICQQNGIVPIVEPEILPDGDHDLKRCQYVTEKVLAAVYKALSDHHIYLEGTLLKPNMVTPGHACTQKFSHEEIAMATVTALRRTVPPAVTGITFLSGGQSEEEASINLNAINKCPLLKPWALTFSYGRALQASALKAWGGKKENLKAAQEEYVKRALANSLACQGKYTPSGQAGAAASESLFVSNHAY
From the text: as §1, §2

[4] = target: Argininosuccinate synthase (ASS1) (Homo sapiens, UniProt P00966); conditions: sheet Merged, SKBR3 cells
Argininosuccinate synthase (ASS1), sequence (P00966 whole entry): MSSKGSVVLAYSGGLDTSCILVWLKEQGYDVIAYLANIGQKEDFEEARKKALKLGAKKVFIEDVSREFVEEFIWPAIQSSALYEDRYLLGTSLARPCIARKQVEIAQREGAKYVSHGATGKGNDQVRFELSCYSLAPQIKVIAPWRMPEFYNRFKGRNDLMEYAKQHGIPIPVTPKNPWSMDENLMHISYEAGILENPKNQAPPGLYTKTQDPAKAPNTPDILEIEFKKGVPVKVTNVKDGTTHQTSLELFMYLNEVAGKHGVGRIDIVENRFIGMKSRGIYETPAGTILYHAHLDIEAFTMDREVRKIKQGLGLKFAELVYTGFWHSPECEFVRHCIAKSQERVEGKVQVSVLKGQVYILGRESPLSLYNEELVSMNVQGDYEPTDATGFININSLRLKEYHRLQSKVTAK
From the text: as §1, §2

[5] = target: T-complex protein 1 subunit theta (CCT8) (Homo sapiens, UniProt P50990); conditions: sheet Exp1, SKBR3 cells
From the text: as §1, §2

[6] = target: Heat shock protein HSP 90-beta (HSP90AB1) (Homo sapiens, UniProt P08238)
Heat shock protein HSP 90-beta (HSP90AB1), sequence (P08238 whole entry): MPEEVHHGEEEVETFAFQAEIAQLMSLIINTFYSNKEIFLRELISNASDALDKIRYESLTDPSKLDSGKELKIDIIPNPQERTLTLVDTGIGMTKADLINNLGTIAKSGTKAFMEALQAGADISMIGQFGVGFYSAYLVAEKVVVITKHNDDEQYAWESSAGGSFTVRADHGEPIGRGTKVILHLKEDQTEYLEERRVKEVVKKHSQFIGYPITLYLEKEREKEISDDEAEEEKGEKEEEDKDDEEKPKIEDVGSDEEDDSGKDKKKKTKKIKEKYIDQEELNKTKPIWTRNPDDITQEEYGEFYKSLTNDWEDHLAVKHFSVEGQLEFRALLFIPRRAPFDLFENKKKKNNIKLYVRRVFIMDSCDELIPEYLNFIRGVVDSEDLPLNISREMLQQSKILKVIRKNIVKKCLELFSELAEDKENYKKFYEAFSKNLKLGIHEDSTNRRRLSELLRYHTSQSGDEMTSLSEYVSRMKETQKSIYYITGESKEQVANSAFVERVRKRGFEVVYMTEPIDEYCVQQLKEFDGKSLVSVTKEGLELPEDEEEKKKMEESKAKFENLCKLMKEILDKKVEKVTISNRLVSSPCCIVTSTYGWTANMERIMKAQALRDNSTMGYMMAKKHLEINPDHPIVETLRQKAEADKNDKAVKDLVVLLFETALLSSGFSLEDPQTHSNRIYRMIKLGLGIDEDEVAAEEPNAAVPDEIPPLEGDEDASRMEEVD
From the text: as §1, §2

[7] = sheet Exp1, SKBR3 cells, 11 0.5 µM 3 h vs DMSO
[8] = sheet Exp1, SKBR3 cells, 11 0.5 µM 3 h vs with PU-H71 10 µM
[9] = sheet Merged, SKBR3 cells, 11 0.5 µM 3 h vs DMSO
[10] = sheet Merged, SKBR3 cells, 11 0.5 µM 3 h vs with PU-H71 10 µM
[11] = 11 0.5 µM 3 h vs with PU-H71 10 µM

Isoform 2 of Elongation factor 1-gamma (EEF1G), sequence (P26641 5-437 limits assumed): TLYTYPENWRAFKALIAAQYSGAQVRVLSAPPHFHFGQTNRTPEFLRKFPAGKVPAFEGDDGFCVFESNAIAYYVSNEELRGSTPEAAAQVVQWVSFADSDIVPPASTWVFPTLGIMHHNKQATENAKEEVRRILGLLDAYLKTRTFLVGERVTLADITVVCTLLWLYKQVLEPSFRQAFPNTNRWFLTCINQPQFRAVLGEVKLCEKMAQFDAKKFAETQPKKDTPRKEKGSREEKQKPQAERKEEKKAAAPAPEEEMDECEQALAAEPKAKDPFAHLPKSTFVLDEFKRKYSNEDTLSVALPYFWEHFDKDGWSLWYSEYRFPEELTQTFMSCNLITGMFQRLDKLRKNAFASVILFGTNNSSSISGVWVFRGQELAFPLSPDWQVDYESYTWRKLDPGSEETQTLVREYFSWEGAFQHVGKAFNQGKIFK

## CC(=O)Oc1ccc2c(c1)Oc1cc(OC(C)=O)ccc1C21OC(=O)c2cc(C(=O)NCCOCCOCCNC(=O)CCCC(=O)N(CC#N)S(=O)(=O)c3ccc(C(=O)NCCCn4c(Sc5cc6c(cc5I)OCO6)nc5c(N)ncnc54)cc3)ccc21 [compound 11]
[1]; sheet Exp1
  Abundance Ratio: (11) / (DMSO): 4.152
  Abundance Ratio: (11) / (11 with PU-H71): 0.818
[1]; sheet Merged
  Abundance Ratio: (11) / (DMSO): 1.23
  Abundance Ratio: (11) / (11 with PU-H71): 0.746
[2]; Exp3, TUBA1B
  Abundance Ratio: (11) / (11 with PU-H71): 0.849
  Abundance Ratio: (11) / (DMSO): 4.864
  Abundances (Grouped): 11: 236.9
  Abundances (Grouped): 11 with PU-H71: 279
[2]; [7]
  Abundance Ratio: (11) / (DMSO): 6.965
[2]; [8]
  Abundance Ratio: (11) / (11 with PU-H71): 0.862
[2]; sheet Exp2, TUBA1B
  Abundance Ratio: (11) / (11 with PU-H71): 0.827
  Abundance Ratio: (11) / (DMSO): 7.231
  Abundances (Grouped): 11: 197.4
  Abundances (Grouped): 11 with PU-H71: 238.8
[2]; [9]
  Abundance Ratio: (11) / (DMSO): 6.965
[2]; [10]
  Abundance Ratio: (11) / (11 with PU-H71): 0.862
[3]; Exp3, ALDOA
  Abundance Ratio: (11) / (11 with PU-H71): 0.706
  Abundance Ratio: (11) / (DMSO): 3.817
  Abundances (Grouped): 11: 494.7
  Abundances (Grouped): 11 with PU-H71: 700.9
[3]; [7]
  Abundance Ratio: (11) / (DMSO): 4.85
[3]; [8]
  Abundance Ratio: (11) / (11 with PU-H71): 0.675
[3]; sheet Exp2, ALDOA
  Abundance Ratio: (11) / (11 with PU-H71): 0.724
  Abundance Ratio: (11) / (DMSO): 4.699
  Abundances (Grouped): 11: 363.2
  Abundances (Grouped): 11 with PU-H71: 502
[3]; [9]
  Abundance Ratio: (11) / (DMSO): 4.85
[3]; [10]
  Abundance Ratio: (11) / (11 with PU-H71): 0.675
[4]; 11 0.5 µM 3 h vs DMSO
  Abundance Ratio: (11) / (DMSO): 2.736
[4]; [11]
  Abundance Ratio: (11) / (11 with PU-H71): 0.837
[5]; 11 0.5 µM 3 h vs DMSO
  Abundance Ratio: (11) / (DMSO): 2.74
[5]; [11]
  Abundance Ratio: (11) / (11 with PU-H71): 0.821
[6]; Exp3, HSP90AB1
  Abundance Ratio: (11) / (11 with PU-H71): 3.363
  Abundance Ratio: (11) / (DMSO): 10.531
  Abundances (Grouped): 11: 3418.4
  Abundances (Grouped): 11 with PU-H71: 1016.5
[6]; [7]
  Abundance Ratio: (11) / (DMSO): 8.2
[6]; [8]
  Abundance Ratio: (11) / (11 with PU-H71): 3.253
[6]; sheet Exp2, HSP90AB1
  Abundance Ratio: (11) / (11 with PU-H71): 3.262
  Abundance Ratio: (11) / (DMSO): 9.509
  Abundances (Grouped): 11: 4464.4
  Abundances (Grouped): 11 with PU-H71: 1368.7
[6]; [9]
  Abundance Ratio: (11) / (DMSO): 9.3 and 9.344
[6]; [10]
  Abundance Ratio: (11) / (11 with PU-H71): 3.227

From paper PMC5951806, “Rapid labelling and covalent inhibition of intracellular native proteins using ligand-directed N-acyl-N-alkyl sulfonamide” (Nature Communications, 2018)
